According to US11155550B2, “Histone deacetylase inhibitors and methods of use thereof” (Reaction Biology Corp., priority 2018, dated 2021):

Target: T1, Recombinant human HDAC6 (Homo sapiens, UniProt Q9UBN7)
T1 construct: full-length, MW=180 kDa; GST tag (N); made in house; host or cells: Sf9 insect cells (baculovirus)
T1 sequence (Q9UBN7 1-1215): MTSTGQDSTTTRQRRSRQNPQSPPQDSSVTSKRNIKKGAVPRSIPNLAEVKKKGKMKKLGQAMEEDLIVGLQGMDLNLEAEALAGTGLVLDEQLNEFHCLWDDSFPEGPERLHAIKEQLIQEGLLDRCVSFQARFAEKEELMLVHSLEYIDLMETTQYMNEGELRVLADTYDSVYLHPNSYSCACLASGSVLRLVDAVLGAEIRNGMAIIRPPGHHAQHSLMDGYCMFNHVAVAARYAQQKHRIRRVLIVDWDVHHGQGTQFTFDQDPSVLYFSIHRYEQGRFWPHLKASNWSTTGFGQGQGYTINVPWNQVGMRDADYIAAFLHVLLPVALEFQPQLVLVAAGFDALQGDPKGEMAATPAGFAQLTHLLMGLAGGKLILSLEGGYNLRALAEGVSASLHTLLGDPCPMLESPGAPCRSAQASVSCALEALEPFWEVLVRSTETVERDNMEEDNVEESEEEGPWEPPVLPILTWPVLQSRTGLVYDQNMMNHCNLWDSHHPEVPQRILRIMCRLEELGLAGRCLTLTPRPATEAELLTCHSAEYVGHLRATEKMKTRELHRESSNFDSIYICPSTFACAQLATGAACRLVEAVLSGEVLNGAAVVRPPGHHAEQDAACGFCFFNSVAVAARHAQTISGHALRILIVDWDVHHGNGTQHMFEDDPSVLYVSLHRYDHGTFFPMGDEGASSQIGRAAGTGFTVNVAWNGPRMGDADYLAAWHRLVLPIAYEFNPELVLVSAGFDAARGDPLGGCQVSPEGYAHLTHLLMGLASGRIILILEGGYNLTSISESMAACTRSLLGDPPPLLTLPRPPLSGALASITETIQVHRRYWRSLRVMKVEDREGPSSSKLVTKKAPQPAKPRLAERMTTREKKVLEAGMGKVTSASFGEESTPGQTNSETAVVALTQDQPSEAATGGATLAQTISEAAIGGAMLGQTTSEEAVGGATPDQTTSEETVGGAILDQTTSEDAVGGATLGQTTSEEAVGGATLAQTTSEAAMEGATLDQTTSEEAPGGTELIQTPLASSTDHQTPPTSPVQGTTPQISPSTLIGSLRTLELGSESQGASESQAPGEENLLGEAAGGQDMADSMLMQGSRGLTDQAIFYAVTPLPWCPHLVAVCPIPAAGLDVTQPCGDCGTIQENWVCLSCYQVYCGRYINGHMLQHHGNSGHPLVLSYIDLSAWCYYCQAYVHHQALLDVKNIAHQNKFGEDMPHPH
Assay: Biochemical HDAC enzymatic assay, HDAC6
Settings: incubation time 10 min
Experimental: Incubation time for HDAC1/2 is 120 min, and 10 min for other HDACs.
Recombinant human HDAC6 (GenBank Accession No. BC069243), full-length, MW=180 kDa, was expressed by baculovirus in Sf9 insect cells using an N-terminal GST tag.
(§1) • I. Compound handling: Testing compounds were dissolved in 100% DMSO to a specific concentration. The serial dilution was conducted by epMotion 5070 in DMSO. • II. HDAC reaction buffer: 50 mM Tris-HCl, pH8.0, 137 mM NaCl, 2.7 mM KCl, and 1 mM MgCl2, Added fresh: 1 mg/ml BSA, 1% DMSO. • III. Substrate: Fluorogenic HDAC General Substrate for HDAC1, 2, 3, 6, 10, 11 ans Sirt1, 2 and 3: Arg-His-Lys-Lys(Ac); HDAC8 only substrate: Arg-His-Lys(Ac)-Lys(Ac); Class2A Substrate (HDAC4, 5, 7 and 9): Acetyl-Lys(trifluoroacetyl)-AMC; Sirt5 substrate: Ac-Lys(succinyl)-AMC. • IV. General Reaction Procedure: (Standard IC50 determination) • a. Delivered 2× enzyme in wells of reaction plate except No Enzyme (No En) control wells. Add buffer in No En wells. • b. Delivered compounds in 100% DMSO into the enzyme mixture by Acoustic technology (Echo550; nanoliter range). Spin down and pre-incubation. • c. Delivered 2× Substrate Mixture (Fluorogenic HDAC Substrate and co-factor (500 μM of Nicotinamide adenine dinucleotide (NAD^+) in all Sirt assay) in all reaction wells to initiate the reaction. Spin and shake. • d. Incubated for 1-2 hr. at 30° C. with seal. • e. Added Developer with Trichostatin A (or TMP269 or NAD^+) to stop the reaction and to generate fluorescent color. • f. Fluorescence was read (excitatory, 360; emission, 460) using the EnVision Multilabel Plate Reader (Perkin Elmer) • g. Endpoint reading was taken for analysis after the development reaches plateau. • V. Data Analysis: The percentages of enzyme activity (relative to DMSO controls) and IC50 values were calculated using the GraphPad Prism 4 program based on a sigmoidal dose-response equation.
The inhibitory activities of HDAC of compounds of the invention were determined using biochemical HDAC assays. Compounds were tested at the indicated doses in the biochemical assays of HDAC1, HDAC2, HDAC3, HDAC4, HDAC5, HDAC6, HDAC7, HDAC8, HDAC9, HDAC10, or HDAC11 enzyme. The curve fit and IC50 values were calculated using the GraphPad Prism 4 program based on a sigmoidal dose-response equation.
as §1, with “[…]” for “μM”, “equation. […]” for “equation.”

| IC50 (Table 2) [nM] | IC50 (Table 1) [nM] | Compound |
| --- | --- | --- |
| 35 | – | CN(C)C(=O)N1CCC2(CC1)c1ccccc1C(=O)N2Cc1ccc(C(=O)NO)cc1 [Compound Example 11, 2-(4-(hydroxycarbamoyl)benzyl)-N,N-dimethyl-3-oxospiro[isoindoline-1,4′-piperidine]-1′-carboxamide] |
| 26 | – | O=C(NO)c1ccc(CN2C(=O)c3ccccc3C23CCN(C2CC2)CC3)cc1 [Compound Example 12, 4-((1′-cyclopropyl-3-oxospiro[isoindoline-1,4′-piperidin]-2-yl)methyl)-N-hydroxybenzamide] |
| – | > 20000 | Nc1ccc(-c2cccs2)cc1NC(=O)c1ccc(CN2C(=O)CCCC23CNC3)cc1 [Example 1, N-(2-amino-5-(thiophen-2-yl)phenyl)-4-((6-oxo-2,5-diazaspiro[3.5]nonan-5-yl)methyl)benzamide] |
| – | > 10000 | Nc1cc(F)ccc1NC(=O)c1ccc(CN2C(=O)CCCC23CNC3)cc1 [Example 3, N-(2-amino-4-fluorophenyl)-4-((6-oxo-2,5-diazaspiro[3.5]nonan-5-yl)methyl)benzamide] |
| – | > 20000 | CN1CCC2(CC1)CN(c1ccc(C(=O)Nc3cc(-c4cccs4)ccc3N)cn1)C(=O)O2 [Example 4, N-(2-amino-5-(thiophen-2-yl)phenyl)-6-(8-methyl-2-oxo-1-oxa-3,8-diazaspiro[4.5]decan-3-yl)nicotinamide] |
| – | > 20000 | Nc1ccc(-c2ccc(F)cc2)cc1NC(=O)c1ccc(N2CC3(CCOCC3)OC2=O)nc1 [Example 5, N-(4-amino-4′-fluoro-[1,1′-biphenyl]-3-yl)-6-(2-oxo-1,8-dioxa-3-azaspiro[4.5]decan-3-yl)nicotinamide] |

Second part, the compound before the results:

| Compound | IC50 (Table 2) [nM] | IC50 (Table 1) [nM] |
| --- | --- | --- |
| O=C(NO)c1ccc(CN2C(=O)c3ccccc3C23OCCO3)cc1 [Compound Example 8, N-hydroxy-4-((3-oxospiro[isoindoline-1,2′-[1,3]dioxolan]-2-yl)methyl)benzamide] | 29 | – |
| O=C(NO)c1ccc(CN2C(=O)C3(CCOC3)c3ccccc32)cc1 (centres unmarked) [Compound Example 9] | 4.5 | – |
| O=C(NO)c1ccc(CN2C(=O)c3ccccc3C23CCNCC3)cc1 [Compound Example 10, N-hydroxy-4-((3-oxospiro[isoindoline-1,4′-piperidin]-2-yl)methyl)benzamide] | 205 | – |
| Nc1ccc(-c2cccs2)cc1NC(=O)c1ccc(CN2C(=O)CCC23CCNCC3)cc1 [Example 2, N-(2-amino-5-(thiophen-2-yl)phenyl)-4-((2-oxo-1,8-diazaspiro[4.5]decan-1-yl)methyl)benzamide] | – | > 20000 |
| Nc1ccc(-c2cccs2)cc1NC(=O)c1ccc(N2CC3(CCNCC3)CCC2=O)nc1 [Example 6, N-(2-amino-5-(thiophen-2-yl)phenyl)-6-(3-oxo-2,9-diazaspiro[5.5]undecan-2-yl)nicotinamide] | – | > 20000 |
